Literature values, collected in patent US7772273B2 (LifeCycle Pharma A/S, priority 2006, dated 2010).
Where two headings read alike, the source gives them in different places.

How the values were obtained:
[1] = oral
[2] = at 25° C.

Systemic availability of HMG-CoA reductase inhibitory activity [1] | Water solubility [2] | SMILES | LDL-C reduction (LDL-C; given with or without food) | LDL-C reduction (LDL-C; regardless of the time of day of drug administration)
approximately 30% |  | CC(C)c1c(C(=O)Nc2ccccc2)c(-c2ccccc2)c(-c2ccc(F)cc2)n1CCC(O)CC(O)CC(=O)O (stereo not drawn) [atorvastatin, 2-(4-fluorophenyl)-β,δ-dihydroxy-5-(1-methylethyl)-3-phenyl-4-[(phenylamino)carbonyl]-1H-pyrrole-1-heptanoic acid] | similar | the same
 | about 550 mg/mL | NC(CO)(CO)CO [Trometamol, 2-amino-2-(hydroxymethyl)-1,3-propanediol] |  | 
